Measurements from US20030013656A1, “Pyruvate derivatives” (priority 2001, published 2003).

System: rat middle cerebral artery occlusion (MCAO) model
Experiment: Rat middle cerebral artery occlusion (MCAO) model of cerebral ischemia
Assay type: in vivo
Conditions: 2 h, doses in the range of less than about 1 μg/kg to less than about 10 mg/kg, two hours MCAO, read-out: reduction in total infarct volume
Description: Male Wistar rats (Harlan, Ind.) weighing 300-350 g are commonly used in these experiments. Animals are allowed free access to water and commercial rodent diet under standard laboratory conditions. Room temperature is maintained at 20-23° C. and room illumination is on a 12/12-hour light/dark cycle. Animals are acclimatized to the laboratory environment 5 to 7 days prior to the study, and fasted (with free access to water) overnight before surgery.
Anesthesia is maintained by inhalation of 3.0% isoflurane (Aerrane, Front Dodge, Iowa) in […]. The animal's neck is shaved and sterilized before operation. Body temperatures are controlled and maintained at 37.5° C.+/−1 degree via external heating and cooling devices. To lower the body temperature, animals are placed in a cooling chamber that uses ice to cool circulating air. Throughout the study the body temperature is recorded using a temperature transponder (BMDS Inc., Seaford, Del.) implanted subcutaneously at the time of MCAO between the rat shoulder blades, which allows the user to read the body temperature via a pocket scanner (BMDS Inc., Seaford, Del.). The body temperature can also be taken by inserting the temperature probe into the animal's rectum. Body temperature is recorded every hour for 6 hours post-occlusion, but temperature is measured more frequently to facilitate maintaining the animals' normothermic temperature.
Animals are subjected to two hours MCAO using a modified intraluminal filament technique, as follows. A midline incision on the ventral part of the neck is made to expose external and internal carotid arteries. The right external and common carotid arteries are ligated by a suture (silk 5/0, Carlisle Laboratories, Farmers Branch, Tex.) and the right internal artery is temporarily ligated using a microvascular clip (Fine Science Tool Inc., Foster City, Calif.). A small incision is made in the common carotid artery. A nylon filament, its tip rounded by heating, is prepared from a fishing line (Stren Fishing Lines, Wilmington, Del.) and is inserted from the right common carotid artery. The filament is advanced into the internal carotid artery 18-20 mm from the point of bifurcation of internal and external arteries and a suture is tightly ligated around the filament. Two hours post occlusion, animals are re-anesthetized to allow reperfusion for the remaining of the experiment by removal of the filament. C. Drug Administration
Test compounds can be administered by any of a number of routes, such as those described below. Compounds can be administered before, during or after occlusion, as appropriate to the protocol.
One hour after MCAO, the animal is gently held by its tail and observed for forelimb flexion. Then the animal is placed on the floor to be observed for walking pattern; only the animals that score 3 on the Bederson grading system (Table 1) are included in the study.
Twenty-four hours post-MCAO, or longer in some experiments, animals are sacrificed by CO2 asphyxiation (dry ice). The brain is quickly removed from the skull, using standard procedures, rinsed in chilled saline solution, and placed on a rat brain tissue slicer (ASI instrument, MI). Seven 2-mm thick coronal slices are cut from each brain using razor blades. The slices are immersed in 0.9% saline containing 1.0% 2,3,5-triphenyltetrazolume chloride (TTC) (Sigma Chemical Co., St. Louis, Mo.) and incubated in a 37° C. water bath for 30 minutes.
After staining, each 2-mm slice is photographed with a TMC-7 camera (JH Technologies, Ca) which is directly connected to a desktop PC to capture and save the image of each brain slice. This image is used for the measurements of the regions of interest using a computer-based image processing system (Metamorph).
To measure each area, the region of interest is selected using a freehand selection tool, the area is automatically computed by selecting the measure command. […]

SMILES | inhibition in vivo at up to 10 mg/kg [%]
NC(CCC(=O)NC(CSCC(=O)C(=O)N1CCCCC1)C(=O)NCC(=O)O)C(=O)O (centres unmarked) [2-Amino-4-[1-(carboxymethyl-carbamoyl)-2-(2,3-dioxo-3-piperidin-1-yl-propylsulfanyl)-ethylcarbamoyl]-butyric acid] | 20 to 80
CCCCOC(=O)C(CSCC(NC(=O)CCC(N)C(=O)O)C(=O)NCC(=O)O)=NOC (centres unmarked) [2-Amino-4-[2-(2-butoxycarbonyl-2-methoxyimino-ethylsulfanyl)-1-(carboxymethyl-carbamoyl)-ethylcarbamoyl]-butyric acid] | 20 to 80
NC(CCC(=O)NC(CSCC(=NO)C(=O)N1CCCCC1)C(=O)NCC(=O)O)C(=O)O (centres unmarked) [2-Amino-4-[1-(carboxymethyl-carbamoyl)-2-(2-hydroxyimino-3-oxo-3-piperidin-1-yl-propylsulfanyl)-ethylcarbamoyl]-butyric acid] | 20 to 80
CCCCOC(=O)C(CSCC(NC(=O)CCC(N)C(=O)O)C(=O)NCC(=O)O)=NOCc1ccccc1 (centres unmarked) [2-Amino-4-[2-(2-benzyloxyimino-2-butoxycarbonyl-ethylsulfanyl)-1-(carboxymethyl-carbamoyl)-ethylcarbamoyl]-butyric acid] | 20 to 80
CCOC(=O)C(CSCC(NC(=O)CCC(N)C(=O)O)C(=O)NCC(=O)O)=NO (centres unmarked) [2-amino-4-[1-(carboxymethyl-carbamoyl)-2-(2-ethoxycarbonyl-2-hydroxyimino-ethylsulfanyl)-ethylcarbamoyl]-butyric acid] | 20 to 80
CCOC(=O)C(=O)CSc1nc2cc([N+](=O)[O-])ccc2[nH]1 [3-(5-nitro-1H-benzoimidazol-2-ylsulfanyl)-2-oxo-propionic acid ethyl ester] | 20 to 80
COC(=O)C(Cc1ccccc1)NC(=O)C(=O)CSCC(NC(=O)CCC(N)C(=O)O)C(=O)NCC(=O)O (centres unmarked) [2-Amino-4-{1-(carboxymethyl-carbamoyl)-2-[2-(1-methoxycarbonyl-2-phenyl-ethylcarbamoyl)-2-oxo-ethylsulfanyl]-ethylcarbamoyl}-butyric acid] | 20 to 80
CCCCCCOC(=O)C(=O)CSCC(NC(=O)CCC(N)C(=O)O)C(=O)NCC(=O)O (centres unmarked) [2-amino-4-[1-(carboxymethyl-carbamoyl)-2-(2-hexyloxycarbonyl-2-oxo-ethylsulfanyl)-ethylcarbamoyl]-butyric acid] | 20 to 80
CCOC(=O)C(=O)CSc1nc2cc(OC)ccc2[nH]1 [3-(5-methoxy-1H-benzoimidazol-2-ylsulfanyl)-2-oxo-propionic acid ethyl ester] | 20 to 80
CCOC(=O)C(=O)CSC1=NCCS1 [3-(4,5-dihydro-thiazol-2-ylsulfanyl)-2-oxo-propionic acid ethyl ester] | 20 to 80
NC(CCC(=O)NC(CSCC(=O)C(=O)O)C(=O)NCC(=O)O)C(=O)O (centres unmarked) [2-amino-4-[1-(carboxymethyl-carbamoyl)-2-(2-carboxy-2-oxo-ethylsulfanyl)-ethylcarbamoyl]-butyric acid] | 20 to 80
CCOC(=O)/C(CSCC(NC(=O)CCC(N)C(=O)O)C(=O)NCC(=O)O)=N\OC (centres unmarked) [2-Amino-4-[1-(carboxymethyl-carbamoyl)-2-(2-ethoxycarbonyl-2-methoxyimino-ethylsulfanyl)-ethylcarbamoyl]-butyric acid] | 20 to 80
CCOC(=O)C(N)CCC(=O)NC(CSCC(=O)C(=O)O)C(=O)NCC(=O)O (centres unmarked) [2-amino-4-[1-(carboxymethyl-carbamoyl)-2-(2-carboxy-2-oxo-ethylsulfanyl)-ethylcarbamoyl]-butyric acid ethyl ester] | 20 to 80
CCOC(=O)C(=O)CSc1nc2ccccc2[nH]1 [3-(1H-Benzoimidazol-2-ylsulfanyl)-2-oxo-propionic acid ethyl ester] | 20 to 80
